Laboratory results as given in patent publication US20240158446A1, “CYCLIC COMPOUND HAVING SELECTIVE INHIBITORY ACTION ON KRAS OVER HRAS AND NRAS” (CHUGAI SEIYAKU KABUSHIKI KAISHA, priority 2021, published 2024).
Where a SMILES comes first, the peptide text is derived from it. Bridges are numbered along the chain shown (N, C = ends). [ ]: non-standard residue; d: D form. The star is where a group is joined. hPhe(3-Cl-4-CF3) = N[C@@H](CCc1ccc(C(F)(F)F)c(Cl)c1)C(=O)O; NPrPhe(4-CF3) = CCCN[C@@H](Cc1ccc(C(F)(F)F)cc1)C(=O)O; NMeGly(cPent) = CN[C@H](C(=O)O)C1CCCC1; Pro(4S-Me) = C[C@@H]1CN[C@H](C(=O)O)C1; Aze(3S-Me) = C[C@H]1CN[C@@H]1C(=O)O; Gly(cPent) = N[C@H](C(=O)O)C1CCCC1; cisHyp = O=C(O)[C@@H]1C[C@H](O)CN1; Hyp = O=C(O)[C@@H]1C[C@@H](O)CN1; NMeD = CN[C@@H](CC(=O)O)C(=O)O; NMeL = CN[C@@H](CC(C)C)C(=O)O; Morpholide = C1CN(*)CCO1; NMeA = CN[C@@H](C)C(=O)O; Ac5c = NC1(C(=O)O)CCCC1; Aze = O=C(O)[C@@H]1CCN1; Ethyl(2,2-F2) = FC(F)C*; Ac4c = NC1(C(=O)O)CCC1; Ac3c = NC1(C(=O)O)CC1; NEtG = CCNCC(=O)O; Sar = CNCC(=O)O

Each compound was assayed against GDP-bound KRAS wild-type protein (Homo sapiens, UniProt P01116) (assay: Binding to KRAS by surface plasmon resonance (SPR), Single Cycle Kinetics). Details: SPR Single Cycle Kinetics, GDP-bound KRAS wild-type protein, 1:1 binding model; read-out: KRAS KD.
Sequence of GDP-bound KRAS wild-type protein (P01116 whole entry): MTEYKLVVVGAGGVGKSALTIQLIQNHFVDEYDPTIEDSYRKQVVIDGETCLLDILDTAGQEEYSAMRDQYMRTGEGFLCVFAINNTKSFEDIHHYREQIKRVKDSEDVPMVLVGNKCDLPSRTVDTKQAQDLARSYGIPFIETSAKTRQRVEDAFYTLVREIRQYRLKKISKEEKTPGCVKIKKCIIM

| Kd | Structure (SMILES) |
| --- | --- |
| 0.37 nM | CCCN1C(=O)[C@@H]2CCN2C(=O)CN(C)C(=O)[C@H]([C@@H](C)CC)NC(=O)[C@H](CC(C)C)N(C)C(=O)C[C@@H](C(=O)N(C)C)NC(=O)[C@H](C2CCCC2)N(C)C(=O)C2(CCCC2)NC(=O)[C@@H]2CCCN2C(=O)[C@H](CCc2ccc(C(F)(F)F)c(Cl)c2)NC(=O)CN(C)C(=O)[C@@H]1Cc1ccc(C(F)(F)F)cc1 [PP0385] ([NMeL]I[Sar][Aze][NPrPhe(4-CF3)][Sar][hPhe(3-Cl-4-CF3)]P[Ac5c][NMeGly(cPent)]D-NMe2; lactam N-11) |
| 0.021 nM | CCCN1C(=O)[C@@H]2CCN2C(=O)[C@H](C)N(C)C(=O)[C@H]([C@@H](C)CC)NC(=O)[C@H](CC(C)C)N(C)C(=O)C[C@@H](C(=O)N(C)C)N(C)C(=O)[C@H](C2CCCC2)N(C)C(=O)C2(CCC2)NC(=O)[C@@H]2C[C@@H](OCC)CN2C(=O)[C@H](CCc2ccc(C(F)(F)F)c(Cl)c2)NC(=O)CN(C)C(=O)[C@@H]1Cc1ccc(C(F)(F)F)cc1 [PP0439] ([NMeL]I[NMeA][Aze][NPrPhe(4-CF3)][Sar][hPhe(3-Cl-4-CF3)][Hyp](Et)[Ac4c][NMeGly(cPent)][NMeD]-NMe2; lactam N-11) |
| 0.75 nM | CCCN1C(=O)CN(C)C(=O)CN(CC)C(=O)[C@H]([C@@H](C)CC)NC(=O)[C@H](CC(C)C)N(C)C(=O)C[C@@H](C(=O)N2CCOCC2)N(C)C(=O)[C@H](C2CCCC2)N(C)C(=O)C2(CCCC2)NC(=O)[C@@H]2C[C@H](C)CN2C(=O)[C@H](CCc2ccc(C(F)(F)F)c(Cl)c2)NC(=O)CN(C)C(=O)[C@@H]1Cc1ccc(C(F)(F)F)cc1 [PP0451] ([NMeL]I[NEtG][Sar][NPrPhe(4-CF3)][Sar][hPhe(3-Cl-4-CF3)][Pro(4S-Me)][Ac5c][NMeGly(cPent)][NMeD]-Morpholide; lactam N-11) |

More lines, now with the values behind:

| Structure (SMILES) | Kd |
| --- | --- |
| CCCN1C(=O)CN(C)C(=O)CN(C)C(=O)[C@H]([C@@H](C)CC)NC(=O)[C@H](CC(C)C)N(C)C(=O)C[C@@H](C(=O)N2CCOCC2)N(C)C(=O)[C@H](C2CCCC2)N(C)C(=O)C2(CCCC2)NC(=O)[C@@H]2C[C@H](OCC(F)F)CN2C(=O)[C@H](CCc2ccc(C(F)(F)F)c(Cl)c2)NC(=O)CN(C)C(=O)[C@@H]1Cc1ccc(C(F)(F)F)cc1 [PP0245] ([NMeL]I[Sar][Sar][NPrPhe(4-CF3)][Sar][hPhe(3-Cl-4-CF3)][cisHyp](Ethyl(2,2-F2))[Ac5c][NMeGly(cPent)][NMeD]-Morpholide; lactam N-11) | 0.37 nM |
| CCCN1C(=O)CN(C)C(=O)CN(C)C(=O)[C@H](C2CCCC2)NC(=O)[C@H](CC(C)C)N(C)C(=O)C[C@@H](C(=O)N2CCOCC2)N(C)C(=O)[C@H](C2CCCC2)N(C)C(=O)C2(CCCC2)NC(=O)[C@@H]2CCCN2C(=O)[C@H](CCc2ccc(C(F)(F)F)c(Cl)c2)NC(=O)CN(C)C(=O)[C@@H]1Cc1ccc(C(F)(F)F)cc1 [PP0251] ([NMeL][Gly(cPent)][Sar][Sar][NPrPhe(4-CF3)][Sar][hPhe(3-Cl-4-CF3)]P[Ac5c][NMeGly(cPent)][NMeD]-Morpholide; lactam N-11) | 0.25 nM |
| CCCN1C(=O)[C@@H]2CCN2C(=O)C2(CC2)NC(=O)[C@H]([C@@H](C)CC)NC(=O)[C@H](CC(C)C)N(C)C(=O)C[C@@H](C(=O)N2CCOCC2)N(C)C(=O)[C@H](C2CCCC2)N(C)C(=O)C2(CCCC2)NC(=O)[C@@H]2CCCN2C(=O)[C@H](CCc2ccc(C(F)(F)F)c(Cl)c2)NC(=O)CN(C)C(=O)[C@@H]1Cc1ccc(C(F)(F)F)cc1 [PP0276] ([NMeL]I[Ac3c][Aze][NPrPhe(4-CF3)][Sar][hPhe(3-Cl-4-CF3)]P[Ac5c][NMeGly(cPent)][NMeD]-Morpholide; lactam N-11) | 150 nM |
| CCCN1C(=O)[C@@H]2CCN2C(=O)[C@@H]2[C@@H](C)CN2C(=O)[C@H]([C@@H](C)CC)NC(=O)[C@H](CC(C)C)N(C)C(=O)C[C@@H](C(=O)N2CCOCC2)N(C)C(=O)[C@H](C2CCCC2)N(C)C(=O)C2(CCCC2)NC(=O)[C@@H]2CCCN2C(=O)[C@H](CCc2ccc(C(F)(F)F)c(Cl)c2)NC(=O)CN(C)C(=O)[C@@H]1Cc1ccc(C(F)(F)F)cc1 [PP0279] ([NMeL]I[Aze(3S-Me)][Aze][NPrPhe(4-CF3)][Sar][hPhe(3-Cl-4-CF3)]P[Ac5c][NMeGly(cPent)][NMeD]-Morpholide; lactam N-11) | 0.36 nM |
